Results taken from US20220396565A1 (Hoffmann-La Roche Inc., priority 2020, published 2022).
Where a name gives a salt, the structure may show the parent alone. Read-outs that look alike come from different tables or passages of the source.

System: Acinetobacter baumannii ATCC17961
Assay: Antimicrobial susceptibility testing: 90% growth inhibitory concentration (IC90) determination, Iso-Sensitest broth
Type: cell-based
Conditions: Acinetobacter baumannii
Procedure, shortened: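 Growth at OD600 was monitored every 20 min for 16 h at 35±2 °C, with bacteria inoculated at ~5×10^(5) CFU/ml into Iso-Sensitest medium. Compounds were tested as 10-point twofold dilutions (e.g. 10–0.02 μM final). The 90% inhibitory concentration comes from the log-phase growth.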

[1] = ATCC17961, 90% growth inhibitory concentration, Acinetobacter baumannii ATCC17961, Iso-Sensitest broth, read-out: ATCC 17961 IC90
[2] = ATCC17961, read-out: ATCC 17961 IC90

Structure (SMILES) | IC90 [1] | IC90 [2]
Cn1c(-c2ccc(OCC#N)c(F)c2Cl)cnc1C(=O)Nc1ccc(C(=O)N2CCN(C(=O)C3(O)CCNCC3)CC2)c(Cl)c1 [Example 251, 5-[2-chloro-4-(cyanomethoxy)-3-fluoro-phenyl]-N-[3-chloro-4-[4-(4-hydroxypiperidine-4-carbonyl)piperazine-1-carbonyl]phenyl]-1-methyl-imidazole-2-carboxamide formate] | 50 nM | 
Cn1c(-c2ccc(OCF)c(F)c2F)cnc1C(=O)Nc1ccc(C(=O)N2CCN(C(=O)C3CNCC(O)C3)CC2)c(Cl)c1 (stereo not shown) [Example 171, formate] |  | 50 nM
COc1ccc(-c2cnc(C(=O)Nc3ccc(C(=O)N4CCN(C(=O)C[C@@H]5CCNC5)CC4)c(Cl)c3)n2C)c(C(F)F)c1F [Example 261, N-[3-chloro-4-[4-[2-[(3S)-pyrrolidin-3-yl]acetyl]piperazine-1-carbonyl]phenyl]-5-[2-(difluoromethyl)-3-fluoro-4-methoxy-phenyl]-1-methyl-imidazole-2-carboxamide formate] | 80 nM | 
Cn1c(-c2ccc(OCF)cc2F)cnc1C(=O)Nc1ccc(C(=O)N2CCN(C(=O)C3CCNCC3)CC2)c(Cl)c1 [Example 25, N-(3-chloro-4-(4-(piperidine-4-carbonyl)piperazine-l-carbonyl)phenyl)-5-(2-fluoro-4-(fluoromethoxy)phenyl)-1-methyl-1H-imidazole-2-carboxamide formate] |  | 60 nM
COc1ccc(-c2cnc(C(=O)Nc3ccc(C(=O)N4CCN(C(=O)CC5CCNC5)CC4)c(Cl)c3)n2C)c(F)c1F (stereo not shown) [Example 151, N-[3-chloro-4-[4-(2-pyrrolidin-3-ylacetyl)piperazine-1-carbonyl]phenyl]-5-(2,3-difluoro-4-methoxy-phenyl)-1-methyl-imidazole-2-carboxamide formate] | 40 nM | 
Cn1c(-c2ccc(OCC#N)c(F)c2F)cnc1C(=O)Nc1ccc(C(=O)N2CCC(C(=O)N3CC4(CNC4)C3)CC2)c(Cl)c1 [Example 85, N-(4-(4-(2,6-diazaspiro[3.3]heptane-2-carbonyl)piperidine-1-carbonyl)-3-chlorophenyl)-5-(4-(cyanomethoxy)-2,3-difluorophenyl)-1-methyl-1H-imidazole-2-carboxamide 2,2,2-trifluoroacetate] | 150 nM | 
COc1ccc(-c2cnc(C(=O)Nc3ccc(C(=O)N4CCN(C(=O)CN5CC(O)C5)CC4)c(Cl)c3)n2C)c(F)c1F [Example 295, N-[3-chloro-4-[4-[2-(3-hydroxyazetidin-1-yl)acetyl]piperazine-1-carbonyl]phenyl]-5-(2,3-difluoro-4-methoxy-phenyl)-1-methyl-imidazole-2-carboxamide formate] | 110 nM | 
COc1ccc(-c2cnc(C(=O)Nc3ccc(C(=O)N4CCN(C(=O)[C@H]5C[C@@H](N)C5)CC4)c(Cl)c3)n2C)c(F)c1F [Example 140, N-[4-[4-(3-aminocyclobutanecarbonyl)piperazine-1-carbonyl]-3-chloro-phenyl]-5-(2,3-difluoro-4-methoxy-phenyl)-1-methyl-imidazole-2-carboxamide formate] | 50 nM | 
COc1ccc(-c2cnc(C(=O)Nc3ccc(C(=O)N4CC(C(=O)N5C[C@H]6CNC[C@H]6C5)C4)c(Cl)c3)n2C)c(F)c1F [Example 70, N-[4-[3-[(3aR,6aS)-2,3,3a,4,6,6a-hexahydro-1H-pyrrolo[3,4-c]pyrrole-5-carbonyl]azetidine-1-carbonyl]-3-chloro-phenyl]-5-(2,3-difluoro-4-methoxy-phenyl)-1-methyl-imidazole-2-carboxamide formate] | 140 nM | 
COc1ccc(-c2cnc(C(=O)Nc3ccc(C(=O)N4CCN(C(=O)CN5CCC(O)C5)CC4)c(Cl)c3)n2C)c(F)c1F (stereo not shown) [Example 294, N-[3-chloro-4-[4-[2-(3-hydroxypyrrolidin-1-yl)acetyl]piperazine-1-carbonyl]phenyl]-5-(2,3-difluoro-4-methoxy-phenyl)-1-methyl-imidazole-2-carboxamide formate] | 40 nM | 
Cn1c(-c2ccc(OCF)c(F)c2F)cnc1C(=O)Nc1ccc(C(=O)N2CCN(C(=O)C3[C@H]4CNC[C@@H]34)CC2)c(Cl)c1 (stereo partly drawn) [Example 136, N-[4-[4-[(1R,5S)-3-azabicyclo[3.1.0]hexane-6-carbonyl]piperazine-1-carbonyl]-3-chloro-phenyl]-5-[2,3-difluoro-4-(fluoromethoxy)phenyl]-1-methyl-imidazole-2-carboxamide formate] | 30 nM | 
COc1ccc(-c2cnc(C(=O)Nc3ccc(C(=O)N4CCN(C(=O)C5CNC(=O)N5)CC4)c(Cl)c3)n2C)c(F)c1F (stereo not shown) [Example 133, N-[3-chloro-4-[4-(2-oxoimidazolidine-4-carbonyl)piperazine-1-carbonyl]phenyl]-5-(2,3-difluoro-4-methoxy-phenyl)-1-methyl-imidazole-2-carboxamide] | 170 nM | 
CCc1cc(NC(=O)c2ncc(-c3ccc(OC)c(F)c3F)n2C)ccc1C(=O)N1CCC(C(=O)NCCOCCN(C)C)CC1 [Example 99, 1-[4-[[5-(2,3-difluoro-4-methoxy-phenyl)-1-methyl-imidazole-2-carbonyl]amino]-2-ethyl-benzoyl]-N-[2-[2-(dimethylamino)ethoxy]ethyl] piperidine-4-carboxamid] | 480 nM | 
Cn1c(-c2ccc(OC(F)F)c(F)c2F)cnc1C(=O)Nc1ccc(C(=O)N2CCC(C(=O)N[C@@H]3CCNC3)CC2)c(Cl)c1 [Example 91, (R)-1-(2-chloro-4-(5-(4-(difluoromethoxy)-2,3-difluorophenyl)-1-methyl-1H-imidazole-2-carboxamido)benzoyl)-N-(pyrrolidin-3-yl)piperidine-4-carboxamide formate] | 40 nM | 
Cn1c(-c2ccc(OCF)c(F)c2Cl)cnc1C(=O)Nc1ccc(C(=O)N2CCC(C(=O)N[C@@H]3CNC[C@H]3O)CC2)c(Cl)c1 [Example 53, 1-[2-chloro-4-[[5-[2-chloro-3-fluoro-4-(fluoromethoxy)phenyl]-1-methyl-imidazole-2-carbonyl]amino]benzoyl]-N-[(3R,4R)-4-hydroxypyrrolidin-3-yl]piperidine-4-carboxamide formate] | 50 nM | 
COc1ccc(-c2cnc(C(=O)Nc3ccc(C(=O)N4CCN(C(=O)[C@H]5CCNC[C@@H]5O)CC4)c(Cl)c3)n2C)c(F)c1F [Example 231, N-[3-chloro-4-[4-[(3R,4S)-3-hydroxypiperidine-4-carbonyl]piperazine-1-carbonyl]phenyl]-5-(2,3-difluoro-4-methoxy-phenyl)-1-methyl-imidazole-2-carboxamide formate] | 160 nM | 
COc1ccc(-c2cnc(C(=O)Nc3ccc(C(=O)N4CCC(C(=O)N5C[C@H]6CCN[C@H]6C5)C4)c(Cl)c3)n2C)c(F)c1F (stereo partly drawn) [Example 71, N-[4-[3-[(3aR,6aR)-2,3,3a,4,6,6a-hexahydro-1H-pyrrolo[3,4-b]pyrrole-5-carbonyl]pyrrolidine-1-carbonyl]-3-chloro-phenyl]-5-(2,3-difluoro-4-methoxy-phenyl)-1-methyl-imidazole-2-carboxamide formate] | 470 nM | 
COc1ccc(-c2cnc(C(=O)Nc3ccc(C(=O)N4CCC(C(=O)NC5CNC5)CC4)c(Cl)c3)n2C)c(F)c1F [Example 250, N-(azetidin-3-yl)-1-[2-chloro-4-[[5-(2,3-difluoro-4-methoxy-phenyl)-1-methyl-imidazole-2-carbonyl]amino]benzoyl] piperidine-4-carboxamide trifluoroacetate] | 80 nM | 
Cn1c(-c2ccc(OC(F)F)c(F)c2F)cnc1C(=O)Nc1ccc(C(=O)N2CCN(C(=O)C[C@@H]3CCCN3)CC2)c(Cl)c1 [Example 224, (S)-N-(3-chloro-4-(4-(2-(pyrrolidin-2-yl)acetyl)piperazine-1-carbonyl)phenyl)-5-(4-(difluoromethoxy)-2,3-difluorophenyl)-1-methyl-1H-imidazole-2-carboxamide formate] | 30 nM | 
COc1ccc(-c2cnc(C(=O)Nc3ccc(C(=O)N4CCN(S(C)(=O)=O)CC4)c(Cl)c3)n2C)c(F)c1F [Example 240, N-[3-chloro-4-(4-methylsulfonylpiperazine-1-carbonyl)phenyl]-5-(2,3-difluoro-4-methoxy-phenyl)-1-methyl-imidazole-2-carboxamide] | 320 nM | 
Cn1c(-c2ccc(OC(F)F)c(F)c2F)cnc1C(=O)Nc1ccc(C(=O)N2CCN(C(=O)C3CCN(C(=O)C4CNC4)CC3)CC2)c(Cl)c1 [Example 174, N-[4-[4-[1-(azetidine-3-carbonyl)piperidine-4-carbonyl]piperazine-1-carbonyl]-3-chloro-phenyl]-5-[4-(difluoromethoxy)-2,3-difluoro-phenyl]-1-methyl-imidazole-2-carboxamide formate] | 70 nM | 
C#CCNCCCNC(=O)C1CCN(C(=O)c2ccc(NC(=O)c3ncc(-c4ccc(OC)c(F)c4F)n3C)cc2CC)CC1 [Example 286, 1-[4-[[5-(2,3-difluoro-4-methoxy-phenyl)-1-methyl-imidazole-2-carbonyl]amino]-2-ethyl-benzoyl]-N-[3-(prop-2-ynylamino)propyl]piper-idine-4-carboxamide] | 180 nM | 
Cn1c(-c2ccc(OCC#N)c(F)c2F)cnc1C(=O)Nc1ccc(C(=O)N2CCN(C(=O)N[C@H]3CNC[C@@H]3O)CC2)c(Cl)c1 [Example 282] | 60 nM | 
Cc1cc(NC(=O)c2ncc(-c3ccc(OCC#N)c(F)c3F)n2C)ccc1C(=O)N1CCC(C(=O)N2CCO[C@@H](CN)C2)CC1 [Example 87, (S)-N-(4-(4-(2-(aminomethyl)morpholine-4-carbonyl)piperidine-1-carbonyl)-3-methylphenyl)-5-(4-(cyanomethoxy)-2,3-difluorophenyl)-1-methyl-1H-imidazole-2-carboxamide 2,2,2-trifluoroacetate] | 120 nM | 
Cn1c(-c2ccc(OCC#N)c(F)c2Cl)cnc1C(=O)Nc1ccc(C(=O)N2CCN(C(=O)[C@@H]3CCNC3)CC2)c(Cl)c1 [Example 254, 5-[2-chloro-4-(cyanomethoxy)-3-fluoro-phenyl]-N-[3-chloro-4-[4-[(3R)-pyrrolidine-3-carbonyl]piperazine-1-carbonyl]phenyl]-1-methyl-imidazole-2-carboxamide formate] | 40 nM | 
